The results in this text go back to patent US8586533B2, “Treatment of early-stage osteoarthritis” (Kaohsiung Medical University, priority 2008, dated 2013).

Molecules are shown by their SMILES.

Common to all, as to format: cell-based
Assay [1] concerns human articular chondrocytes. Nature of the assay: Quantitative real-time PCR of mRNA levels in azaC-induced terminal differentiation culture model. To be noted: azaC group. The procedure:
Chondrocyte cultures were divided into 4 groups. […] Louis, Mo.) for 48 hours.
For orientation: Real-time PCR tracks product formation cycle by cycle.

Assay [2] concerns human articular chondrocytes. Nature of the assay: TUNEL staining, rate of apoptosis in chondrocyte cultures. To be noted: azaC cultures, 14 days, P<0.01. The procedure:
(§1) Chondrocyte cultures were divided into 4 groups.
We measured apoptotic cells using the TUNEL (terminal deoxy-nucleotidyl transferase mediated dUTP nick end labeling) staining method using the In Situ Cell Death Detection Kit, TMR red (Roche, Mannheim, Germany). Following the manufacturer's guidelines, cells were fixed with 4% paraformaldehyde in phosphate buffered saline (PBS) at a cell density of 1×10^6/ml and incubated at room temperature for 10 minutes, and then settled on a slide by centrifugation at a speed of 2,000 rpm for 5 minutes using a cytospin (Cytospin 3; Shandon, Cheshire, UK). Slides were rinsed twice with PBS, and the cells were permeabilized by incubating in permeabilization solution (0.1% Triton X-100 in 0.1% sodium citrate) for 2 minutes on ice. The TUNEL reaction mixture containing terminal deoxynucleotidyl transferase and rhodamine (the labeling dye) was added to the slides and incubated at 37° C. in a humidified chamber in the dark for 60 minutes. The reaction was stopped by a blocking buffer (0.1% Triton X-100/0.5% bovine serum albumin in PBS). Cells were counterstained by 4′,6-diamidino-2-phenylindole (DAPI). The slides were observed under a fluorescence microscope with an excitation wavelength of 580 nm for rhodamine and 365 nm for DAPI. Cell nuclei were stained blue by DAPI, and only apoptotic cells were stained red by rhodamine. Stained cells were counted in 5 microscopic fields (1.566 mm^2/field) on each slide. Data were analyzed using Image-Pro Plus analysis software (Media Cybernetics, Silver Spring, Md.). The rate of apoptosis in chondrocytes was defined as the ratio of red-stained cells (apoptotic cells) to blue-stained cells (total cells).
By using TUNEL staining, the rate of apoptosis in human articular chondrocyte cultures in the control, azaC, and azaC plus PTH groups were compared after 14 days of PTH(1-34) treatment (for the azaC plus PTH group).

Assay [3] concerns human articular chondrocytes. Nature of the assay: Dimethylmethylene blue (DMMB) assay of GAG levels in chondrocyte cultures. To be noted: azaC group, 3 and 7 days after azaC induction, P<0.01. The procedure:
as §1
Alginate beads were dissolved as described above and further digested by papain (300 μg/ml) at 60° C. for 18 hours. The levels of DNA and sulfated glycosaminoglycan (GAG) in the samples were quantified using Hoechst 33258 dye and 1,9-dimethylmethylene blue dye, respectively. A standard curve for the DMMB assay was generated using aqueous chondroitin sulfate C solution (Sigma-Aldrich, St. Louis, Mo.) at concentrations ranging from […].

Where [4] appears, read: 7 and 10 days after azaC induction, P<0.01.
[5] abbreviates: after 3 days of azaC induction, P<0.01.
Where [6] appears, read: after 7 days of azaC induction, P<0.05.

As for `Nc1ncn([C@@H]2O[C@H](CO)[C@@H](O)[C@H]2O)c(=O)n1` [azaC, 5-azacytidine], the “ALP mRNA level” value in assay [1] (setting [4]) was 5.3-10.9 times that of control. Moreover, the “Col10a1 mRNA level” value in assay [1] (setting [4]) was 2.3-2.4 times that of control. For the same compound, the Bax expression in assay [1] (14 days after azaC induction, P<0.01) is on record as 2.1 times that of control. The “aggrecan mRNA level” value is on record as 56 % of control in assay [1] (after 3 days of azaC induction (15 μg/ml, 48 hours), P<0.05) and 31 % of control in assay [1] (after 7 days of azaC induction, P<0.01). For the same compound, the results for the “Col2a1 mRNA level” value in assay [1] (setting [5]) and in assay [1] (setting [6]) were 46.3 % of control and 64.8 % of control, respectively. Moreover, the IHH expression is 6.5 times that of control in assay [1] (setting [5]); 2.6 times that of control in assay [1] (setting [6]); 2.7 times that of control in assay [1] (after 10 days of azaC induction, P<0.05). The “Bcl-2 mRNA level” value in assay [1] (after 3 days, P<0.05) is listed as 3.2 times that of control; in assay [1] (after 10 days, P<0.01), 4.7 times that of control. The “rate of apoptosis versus control cultures” value in assay [2] is recorded as 4.8 fold increase. Further, the “GAG levels versus control” value in assay [3] is listed as “significantly lower”.
